The values below come from patent publication US20130261133A1, “Therapeutic Compounds for Protozoal and Microbial Infections and Cancer” (THE UNIVERSITY OF MONTANA, priority 2012, published 2013).

Several values for one entry are separate records, joined by “and”; a condition that tells them apart may be missing. Identical values can stand only once.

The subject of data set [1] is Leishmania donovani. Description: Antileishmanial assay, Leishmania in infected macrophages (L. donovani). To be noted: Leishmania donovani, Macrophage, read-out: IC50 Leishmania in infected macrophages.
Data set [2] relates to leishmaniasis (LV82 PM infection), liver parasitemia. Put plainly: In vivo efficacy: liver parasitemia in BALB/c mice with leishmaniasis. The conditions noted are these: 10 mg/kg i.p. The procedure: The following protocols were used to prepare the various treatments described in Table 2: • a. Miltefosine ([…] stock solution in sterile PBS): 7.5 mg miltefosine was weighed and put in a eppendorf tube, then 0.75 mL of sterile PBS was added. After vortexing, a clear solution was formed. Make 1 mg/mL solution daily by diluting 100 μL of 10 mg/mL miltefosine solution in 900 μL sterile PBS. • b. Vehicle control: 5% (v/v) DMSO, 50% (v/v) PEG 400, 10% (v/v) Ethanol, and 35% (v/v) distilled water. • c. Compound 47 (2 mg/mL solution of compound 47 in PEG 400/Ethanol vehicle): […]. Dilute the above solution 1:20 with PEG 400/EtOH/water daily. After vortexing and warming up at 37° C. for 30 min., a clear solution formed. • d. Compound 48 (2 mg/mL solution of compound 48 in PEG 400/Ethanol vehicle): 6.8 mg of compound 48 was dissolved in 0.17 mL of DMSO to make a 40 mg/mL stock solution. After vortexing, a yellowish-brown solution was formed. Diluted the above solution 1:20 with PEG 400/EtOH/water daily. After vortexing a clear solution formed. • e. Compound 50 (2 mg/mL solution of compound 50 in PEG 400/Ethanol vehicle): 8.4 mg of compound 50 was dissolved in 0.21 mL of DMSO to make a 40 mg/mL stock solution. After vortexing, a dark yellowish-brown solution was formed. Diluted the above solution 1:20 with PEG 400/EtOH/water. After vortexing a clear solution formed.
(§1) Compounds 47, 48, and 50 were then evaluated in animal studies with BALB/c mice with leishmaniasis. Compounds were delivered via i.p. injection at 10 mg/kg, with untreated, vehicle, and miltefosine controls as described in Table 2. […] Miltefosine, the only oral treatment currently available to treat leishmaniasis in humans, was also evaluated in the BALB/c mice for comparison purposes.

Data set [3] is described as follows: Body and organ weights of infected, treated BALB/c mice. In kind it is in vivo. The method, then: as §1

In general, IC50 refers to the concentration needed to halve the response being measured. With `C=C[C@@H](C#CC#CC(CCCCCCCCC)NC(=O)c1ccc(Cl)cc1)OC(C)=O` (stereo in doubt) [Compound 39, (3S,8R)-8-(4-chlorobenzamido)heptadeca-1-en-4,6-diyn-3-yl acetate], the 50% inhibitory concentration (IC50) in data set [1] turned out to be 112 nM.
Same read-out and setting: for `C=C[C@@H](C#CC#CC(CCCCCCCCC)NC(=O)c1ccc(Cl)c(Cl)c1)OC(C)=O` (stereo in doubt) [Compound 40, (3S,8R)-8-(3,4-dichlorobenzamido)heptadeca-1-en-4,6-diyn-3-yl acetate] the value was 428 nM.
In the case of `C=C[C@@H](C#CC#CC(CCCCCCCCC)NC(=O)c1ccc(C)cc1)OC(C)=O` (stereo in doubt) [Compound 41, (3S,8R)-8-(4-methylbenzamido)heptadeca-1-en-4,6-diyn-3-yl acetate], the IC50 in data set [1] is 126 nM.
Same read-out and setting: then `C=C[C@@H](C#CC#CC(CCCCCCCCC)NC(=O)c1ccc(OC)cc1)OC(C)=O` (stereo in doubt) [Compound 42, (3S,8R)-8-(4-methoxybenzamido)heptadeca-1-en-4,6-diyn-3-yl acetate], with 165 nM; and `C=C[C@H](O)C#CC#C[C@@H](CCCCCCCCC)NCCCC` [Compound 55, (3S,8R)-8-(butylamino)heptadeca-1-en-4,6-diyn-3-ol], with 3 nM; and `C=C[C@H](O)C#CC#C[C@@H](CCCCCCCCC)NC(=O)c1ccccc1` [Compound 56, N-((3S,8R)-3-hydroxyheptadeca-1-en-4,6-diyn-8-yl)benzamide], with 5 nM.
Same read-out and setting: for `C=C[C@H](O)C#CC#C[C@@H](CCCCCCCCC)NC(=O)OCC` [Compound 57, ethyl((3S,8R)-3-hydroxyheptadeca-1-en-4,6-diyn-8-yl)carbamate] the value was 10 nM; for `C=C[C@H](O)C#CC#C[C@@H](CCCCCCCCC)OC` [Compound 58, (3S,8R)-8-methoxyheptadeca-1-en-4,6-diyn-3-ol], 11 nM.
`C=C[C@H](O)C#CC#C[C@@H](CCCCCCCCC)NC(C)=O` [Compound 59, N-((3S,8R)-3-hydroxyheptadeca-1-en-4,6-diyn-8-yl)acetamide]: the IC50 in data set [1] amounted to 18 nM.
Still for that read-out and setting: for `C=C[C@@H](C#CC#C[C@@H](CCCCCCCCC)NC(=O)c1cc(C)on1)OC(C)=O` [Compound 61, (3S,8R)-8-(5-methylisoxazole-3-carboxamido)heptadeca-1-en-4,6-diyn-3-yl acetate] the value was 77 nM.
On the same count and under the same terms, for `C=C[C@@H](C#CC#C[C@@H](CCCCCCCCC)NC(=O)c1ccccn1)OC(C)=O` [Compound 62, (3S,8R)-8-(picolinamido)heptadeca-1-en-4,6-diyn-3-yl acetate] the value was 89 nM.
For `C=C[C@@H](C#CC#C[C@@H](CCCCCCCCC)NC(=O)c1cnccn1)OC(C)=O` [Compound 63, (3S,8R)-8-(pyrazine-2-carboxamido)heptadeca-1-en-4,6-diyn-3-yl acetate], the IC50 in data set [1] was determined as 42 nM.
The same measure, in the same setting: then `C=C[C@@H](C#CC#C[C@@H](CCCCCCCCC)NC(=O)c1ccccc1Cl)OC(C)=O` [Compound 64, (3S,8R)-8-(2-chlorobenzamido)heptadeca-1-en-4,6-diyn-3-yl acetate], with 109 nM; and `C=C[C@@H](C#CC#C[C@@H](CCCCCCCCC)NC(=O)c1cccc(Br)c1)OC(C)=O` [Compound 65, (3S,8R)-8-(3-bromobenzamido)heptadeca-1-en-4,6-diyn-3-yl acetate], with 184 nM.
Still for that read-out and setting: then `C=C[C@@H](C#CC#C[C@@H](CCCCCCCCC)NC(=O)c1cccc(C)c1)OC(C)=O` [Compound 66, (3S,8R)-8-(3-methylbenzamido)heptadeca-1-en-4,6-diyn-3-yl acetate], with 120 nM; and `C=C[C@@H](C#CC#C[C@@H](CCCCCCCCC)NC(=O)c1ccc(F)cc1)OC(C)=O` [Compound 67, (3S,8R)-8-(4-fluorobenzamido)heptadeca-1-en-4,6-diyn-3-yl acetate], with 72 nM; and `C=C[C@@H](C#CC#C[C@@H](CCCCCCCCC)NC(=O)c1cccc(C(F)(F)F)c1)OC(C)=O` [Compound 68, (3S,8R)-8-(3-(trifluoromethyl)benzamido)heptadeca-1-en-4,6-diyn-3-yl acetate], with 191 nM.
For `C=C[C@@H](C#CC#C[C@@H](CCCCCCCCC)NC(=O)c1ccco1)OC(C)=O` [Compound 69, (3S,8R)-8-(furan-2-carboxamido)heptadeca-1-en-4,6-diyn-3-yl acetate], in data set [1], the IC50 was 50 nM.
The same measure, in the same setting: for `C=C[C@@H](C#CC#C[C@@H](CCCCCCCCC)NC(=O)c1cc(Cl)cc(Cl)c1)OC(C)=O` [Compound 70, (3S,8R)-8-(3,5-dichlorobenzamido)heptadeca-1-en-4,6-diyn-3-yl acetate] the value was 252 nM; for `C=C[C@@H](C#CC#C[C@@H](CCCCCCCCC)N=C=S)OC(C)=O` [Compound 71, (3S,8R)-8-isothiocyanatoheptadeca-1-en-4,6-diyn-3-yl acetate], 21600 nM.
Turning to `C=C[C@@H](C#CC#C[C@@H](CCCCCCCCC)NC(=O)CCCOCc1ccccc1)OC(C)=O` [Compound 72, (3S,8R)-8-(4-(benzyloxy)butanamido)heptadeca-1-en-4,6-diyn-3-yl acetate], the IC50 in data set [1] was 529 nM.
Same read-out and setting: for `CCCCCCCCC[C@H](C#CC#C[C@@H](O)C1CC1)NCCCC` [Compound 74, (1S,6R)-6-(butylamino)-1-cyclopropylpentadeca-2,4-diyn-1-ol] the value was 722 nM.
For `C/C=C/[C@H](O)C#CC#C[C@@H](CCCCCCCCC)NCCCC` [Compound 75, (4S,9R,E)-9-(butylamino)octadeca-2-en-5,7-diyn-4-ol], the IC50 in data set [1] came out at 31 nM.
On the same count and under the same terms, then `CCCCCCCCC[C@H](C#CC#C[C@@H](O)c1ccccc1)NCCCC` [Compound 76, (1S,6R)-6-(butylamino)-1-phenylpentadeca-2,4-diyn-1-ol], with 113 nM.
With `CCCCCCCCC[C@H](C#CC#C[C@@H](O)c1ccc(OCC)cc1)NCCCC` [Compound 77, (1S,6R)-6-(butylamino)-1-(4-ethoxyphenyl)pentadeca-2,4-diyn-1-ol], in data set [1], the IC50 is 443 nM.
Still for that read-out and setting: then `C=C[C@H](O)C#CC#C[C@@H](CCCCCCCCC)NCC` [Compound 78, (3S,8R)-8-(ethylamino)heptadeca-1-en-4,6-diyn-3-ol], with 30 nM; and `C=C[C@@H](C#CC#C[C@@H](CCCC1CCCCC1)NC(=O)c1ccccc1)OC(C)=O` [Compound 79, (3S,8R)-8-benzamido-11-cyclohexylundeca-1-en-4,6-diyn-3-yl acetate], with 27 nM.
In the case of `CCCCCCCCCCCCCCCCOP(=O)([O-])OCC[N+](C)(C)C` [Miltefosine, reference compound], the “LDU mean ± SD” value in data set [2] (group mean, n=4) was 87.0. In data set [2] (infected BALB/c mice), the “% Reduction (Average) in liver parasitemia” value is 98% and 97.8%. Moreover, the “# of amastigotes per 200 nuclei” value in data set [2] (liver, individual mice) is 22 and 13 and 8 and 24. In addition, the LDU in data set [2] (total liver parasitemia, individual mice) is 109.6 and 67.7 and 35.9 and 134.9. In data set [3] (10 mg/kg i.p., individual mice, Table 4), the Body weight is 18.3 g and 18.0 g and 17.1 g and 20.0 g. Moreover, in data set [3] (post-treatment, 10 mg/kg i.p., group mean), the “Mean body weight of mice Post-treatment” value is listed as 18.4 g. The “Mean body weight of mice Pre-treatment” value in data set [3] (pre-treatment (baseline), group mean) is 18.4 g.
